Reference: PubChem BioAssay AID1013 (Columbia University Molecular Screening Center, 2008)
Calls of active or inactive are those of the source. No rule for the calls is given here.

Experiments:
[1] = inhibitors of TNFa-induced VCAM1 expression, confirmation, imaging, TNFa stimulus, retest and dose response (AID 1013); details: TNFa-stimulated cells, VCAM1 expression imaging; cell count; at 10 µM; stronger effect = lower value;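 as to cell count: compound on cells 1 h before TNFa then 24 h more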
[2] = test system: TNFa-stimulated cells, VCAM1 expression imaging; assay: as above

Structure (SMILES): Cc1cccc(CS(=O)(=O)c2nnc([C@H](Cc3ccccc3)NC(=O)OC(C)(C)C)o2)c1
- cell count [1]: 99.2%
- IC50 [2]: > 10 µM (inactive)

Structure (SMILES): CCOC(=O)c1[nH]c(C)c(C(=O)c2cc(F)ccc2F)c1C
- cell count [1]: 70.7%
- IC50 [2]: 0.6 µM

Structure (SMILES): Oc1ccc(Nc2nc3ccccc3nc2Nc2ccc(O)cc2)cc1
- cell count [1]: 1.62%
- IC50 [2]: 3.26 µM

Structure (SMILES): O=C1CCCc2c1[nH]c1ccc(Cl)cc21
- cell count [1]: 61.6%
- IC50 [2]: 0.888 µM

Structure (SMILES): CCOC(=O)C1=C(c2ccccc2)O/C(=C(/C#N)C(F)(F)F)S1
- cell count [1]: 107%
- IC50 [2]: > 10 µM (inactive)

Structure (SMILES): O=[N+]([O-])/C=C/c1c(OCc2ccccc2)ccc2ccccc12
- cell count [1]: 112%
- IC50 [2]: > 10 µM (inactive)

Structure (SMILES): COc1cc(C(=O)N2CCN(c3cc(Cl)ccc3Cl)CC2)cc(OC)c1OC
- cell count [1]: 82.9%
- IC50 [2]: > 10 µM (inactive)

Structure (SMILES): COc1cc(-c2nnc3n2N=C(c2ccccc2)CS3)cc(OC)c1OC
- cell count [1]: 99.8%
- IC50 [2]: > 10 µM (inactive)

Structure (SMILES): COc1ccc(-c2cc(C(F)(F)F)n3nc(C(=O)Nc4cc(C)on4)cc3n2)cc1OC
- cell count [1]: 97.9%
- IC50 [2]: > 10 µM (inactive)

Structure (SMILES): COc1ccc(C2=Nn3c(nnc3-c3ccccc3OC)SC2)cc1OC
- cell count [1]: 46.9%
- IC50 [2]: 0.557 µM

Structure (SMILES): COC(=O)C[C@]1(C(=O)OC)CN(C#N)N(c2ccc(Cl)cc2)C12c1ccccc1-c1ccccc12
- cell count [1]: 104%
- IC50 [2]: > 10 µM (inactive)

Structure (SMILES): COc1ccccc1-c1cc(C(F)(F)F)nc(S(=O)(=O)CCCC(=O)N2CCCCC2C)n1 (configuration not stated)
- cell count [1]: 88.8%
- IC50 [2]: > 10 µM (inactive)

Structure (SMILES): O=C(N/N=C/C(Br)=C\c1ccccc1)c1n[nH]c2c1CCC2
- cell count [1]: 29.2%
- IC50 [2]: 0.636 µM

Structure (SMILES): COc1cc(C2C(C#N)=C(N)Oc3cc(N(C)C)ccc32)cc2c1OCO2 (configuration not stated)
- cell count [1]: 47.6%
- IC50 [2]: 5.11 µM

Structure (SMILES): Cc1cccc2cc(C#N)c(SCC(=O)N3CC(=O)Nc4ccccc43)nc12
- cell count [1]: 110%
- IC50 [2]: > 10 µM (inactive)

Structure (SMILES): O=c1c2ccccc2nc(/C=C/c2ccc([N+](=O)[O-])o2)n1CCCO
- cell count [1]: 83.1%
- IC50 [2]: 1.54 µM
